{"source": "patent US12318359B2", "about": "“Combination methods and compositions including sleep therapeutics for treating mood” (priority 2012, dated 2025)", "tested_on": "depression", "assay": "Beck Depression Inventory II score, case study of a depressed patient", "format": "in vivo, human", "details": "person; after three months of fluoxetine monotherapy (20 mg daily raised to 60 mg daily); score at first visit 28", "description": "“Depression symptoms rating scale” refers to any one of a number of standardized questionnaires, clinical instruments, or symptom inventories utilized to measure symptoms and symptom severity in depression. Such rating scales are often used in clinical studies to define treatment outcomes, based on changes from the study's entry point(s) to endpoint(s). Such depression symptoms rating scales include, but are not limited to, The Quick Inventory of Depressive-Symptomatology Self-Report (QIDS-SR16), the 17-Item Hamilton Rating Scale of Depression (HRSD17), the 30-Item Inventory of Depressive Symptomatology (IDS-C30), or The Montgomery-Asperg Depression Rating Scale (MADRS) and […] Depression Inventory II. Such ratings scales may involve patient self-report or be clinician rated. A 50% or greater reduction in a depression ratings scale score over the course of a clinical trial (starting point to endpoint) is typically considered a favorable response for most depression symptoms rating scales. “Remission” in clinical studies of depression often refers to achieving at, or below, a particular numerical rating score on a depression symptoms rating scale, i.e., less than or equal to 7 on the HRSD17; or less than or equal to 5 on the QIDS-SR16; or less than or equal to 10 on the MADRS or less than or equal to 9 on the Beck Depression Inventory II. […]"}
{"smiles": "CNCCC(Oc1ccc(C(F)(F)F)cc1)c1ccccc1", "note": "(stereo not shown) [fluoxetine]", "values": [{"measurement": "Beck Depression Inventory II score", "value": 26}]}
